Laboratory results as given in patent US20230117324A1, “OXAZINE MONOACYLGLYCEROL LIPASE (MAGL) INHIBITORS” (Hoffmann-La Roche Inc., priority 2018, published 2023).

These compounds were tested against T1, MAGL (Homo sapiens, UniProt Q99685) (assay: MAGL inhibition, 2-AG assay (hydrolysis of 2-arachidonoylglycerol, arachidonic acid by mass spectrometry)). Conditions: 2-AG assay (footnote [b]).
T1 sequence (Q99685 1-303): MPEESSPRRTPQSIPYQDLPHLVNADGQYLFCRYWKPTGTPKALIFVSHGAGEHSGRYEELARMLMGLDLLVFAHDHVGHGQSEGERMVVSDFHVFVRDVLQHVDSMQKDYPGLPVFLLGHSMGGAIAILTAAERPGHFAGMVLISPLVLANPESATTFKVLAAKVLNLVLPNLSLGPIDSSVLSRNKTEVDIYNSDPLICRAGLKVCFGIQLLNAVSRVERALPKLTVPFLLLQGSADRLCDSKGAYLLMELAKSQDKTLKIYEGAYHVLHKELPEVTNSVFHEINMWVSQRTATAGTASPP
Format: biochemical
Experimental: Alternatively, compounds were profiled for MAGL inhibitory activity by determining the enzymatic activity by following the hydrolysis of the natural substrate 2-arachidonoylglycerol (2-AG) resulting in arachidonic acid, which can be followed by mass spectrometry. This assay is hereinafter abbreviated “2-AG assay”.
The 2-AG assay was carried out in 384 well assay plates (PP, Greiner Cat #784201) in a total volume of 20 μL. Compound dilutions were made in 100% DMSO (VWR Chemicals 23500.297) in a polypropylene plate in 3-fold dilution steps to give a final concentration range in the assay from 12.5 μM to […]. 0.25 μL compound dilutions (100% DMSO) were added to 9 μL MAGL in assay buffer (50 mM TRIS (GIBCO, 15567-027), 1 mM EDTA (Fluka, 03690-100 mL), 0.01% (v/v) Tween. After shaking, the plate was incubated for 15 min at RT. To start the reaction, 10 μL 2-arachidonoylglycerol in assay buffer was added. The final concentrations in the assay was […] and 8 μM 2-arachidonoylglyerol. After shaking and 30 min incubation at RT, the reaction was quenched by the addition of 40 μL of ACN containing 4 μM of d8-arachidonic acid. The amount of arachidonic acid was traced by an online SPE system (Agilent Rapidfire) coupled to a triple quadrupole mass spectrometer (Agilent 6460). A C18 SPE cartridge (G9205A) was used in an ACN/water liquid setup. The mass spectrometer was operated in negative electrospray mode following the mass transitions 303.1→259.1 for arachidonic acid and 311.1→267.0 for d8-arachidonic acid. The activity of the compounds was calculated based on the ratio of intensities [arachidonic acid/d8-arachidonic acid].
For `CC1CN(C(=O)N2CC[C@@H]3OCC(=O)N[C@@H]3C2)CCC1c1ccc(C(C)(F)F)cn1` (single isomer, unassigned) [Example 43, (4aR,8aS)-6-((3R or 3S)-4-(5-(1,1-Difluoroethyl)pyridin-2-yl)-3-methylpiperidine-1-carbonyl)hexahydro-2H-pyrido[4,3-b][1,4]oxazin-3(4H)-one], the IC50 was 156 nM. `CC1CN(C(=O)N2CC[C@@H]3OCC(=O)N[C@@H]3C2)CCC1c1ccc(C(C)(F)F)cn1` (single isomer, unassigned) [Example 44, (4aR,8aS)-6-((3S or 3R)-4-(5-(1,1-Difluoroethyl)pyridin-2-yl)-3-methylpiperidine-1-carbonyl)hexahydro-2H-pyrido[4,3-b][1,4]oxazin-3(4H)-one] was tested, and the IC50 was 381 nM. For `CC1CN(C(=O)N2CC[C@@H]3OCC(=O)N[C@@H]3C2)CC[C@@H]1c1ccc(C(C)(F)F)cn1` (single isomer, unassigned) [Example 45, (4aR,8aS)-6-((4R or 4S)-(5-(1,1-Difluoroethyl)pyridin-2-yl)-3-methylpiperidine-1-carbonyl)hexahydro-2H-pyrido[4,3-b][1,4]oxazin-3(4H)-one], the IC50 was 3300 nM. With `CC(c1ccc(C(F)(F)F)cc1)C1CCN(C(=O)N2CC[C@@H]3OCC(=O)N[C@@H]3C2)CC1` (single isomer, unassigned) [Example 46, (4aR,8aS)-6-(4-((R or S)-1-(4-(Trifluoromethyl)phenyl)ethyl)piperidine-1-carbonyl)hexahydro-2H-pyrido[4,3-b][1,4]oxazin-3(4H)-one] the IC50 was 3 nM. With `CC(c1ccc(C(F)(F)F)cc1)C1CCN(C(=O)N2CC[C@@H]3OCC(=O)N[C@@H]3C2)CC1` (single isomer, unassigned) [Example 47, (4aR,8aS)-6-(4-((S or R)-1-(4-(Trifluoromethyl)phenyl)ethyl)piperidine-1-carbonyl)hexahydro-2H-pyrido[4,3-b][1,4]oxazin-3(4H)-one] the IC50 was 514 nM. `O=C1CO[C@H]2CCN(C(=O)N3CCC(C(OCC(F)(F)F)c4ccc(F)cc4)CC3)C[C@H]2N1` (single isomer, unassigned) [Example 57, (4aR,8aS)-6-(4-((R or S)-(4-Fluorophenyl)(2,2,2-trifluoroethoxy)methyl)piperidine-1-carbonyl)hexahydro-2H-pyrido[4,3-b][1,4]oxazin-3(4H)-one] gave an IC50 of 29 nM. `O=C1CO[C@H]2CCN(C(=O)N3CCC(C(OCC(F)(F)F)c4ccc(F)cc4)CC3)C[C@H]2N1` (single isomer, unassigned) [Example 58, (4aR,8aS)-6-(4-((S or R)-(4-Fluorophenyl)(2,2,2-trifluoroethoxy)methyl)piperidine-1-carbonyl)hexahydro-2H-pyrido[4,3-b][1,4]oxazin-3(4H)-one] showed an IC50 of 7 nM. With `Cc1noc(CC(c2ccc(F)cc2)C2CCN(C(=O)N3CC[C@@H]4OCC(=O)N[C@@H]4C3)CC2)n1` (single isomer, unassigned) [Example 59, (4aR,8aS)-6-(4-((R or S)-1-(4-Fluorophenyl)-2-(3-methyl-1,2,4-oxadiazol-5-yl)ethyl)piperidine-1-carbonyl)hexahydro-2H-pyrido[4,3-b][1,4]oxazin-3(4H)-one] the IC50 was 60 nM. `Cc1noc(CC(c2ccc(F)cc2)C2CCN(C(=O)N3CC[C@@H]4OCC(=O)N[C@@H]4C3)CC2)n1` (single isomer, unassigned) [Example 60, (4aR,8aS)-6-(4-((S or R)-1-(4-Fluorophenyl)-2-(3-methyl-1,2,4-oxadiazol-5-yl)ethyl)piperidine-1-carbonyl)hexahydro-2H-pyrido[4,3-b][1,4]oxazin-3(4H)-one] gave an IC50 of 67 nM. Compound `COc1cccc(C(c2ccc(F)cc2)C2CCN(C(=O)N3CC[C@@H]4OCC(=O)N[C@@H]4C3)CC2)c1` (single isomer, unassigned) [Example 62, (4aR,8aS)-6-[4-[(S or R)-(4-Fluorophenyl)-(3-methoxyphenyl)methyl]piperidine-1-carbonyl]-4,4a,5,7,8,8a-hexahydropyrido[4,3-b][1,4]oxazin-3-one] has an IC50 of 0.4 nM. With `COc1cccc(C(c2ccc(F)cc2)C2CCN(C(=O)N3CC[C@@H]4OCC(=O)N[C@@H]4C3)CC2)c1` (single isomer, unassigned) [Example 63, (4aR,8aS)-6-(4-((R or S)-(4-Fluorophenyl)(3-methoxyphenyl)methyl)piperidine-1-carbonyl)hexahydro-2H-pyrido[4,3-b][1,4]oxazin-3(4H)-one] the IC50 was 0.3 nM. `COc1cccc(C(c2ccccc2)C2CCN(C(=O)N3CC[C@@H]4OCC(=O)N[C@@H]4C3)CC2)c1` (single isomer, unassigned) [Example 64, (4aR,8aS)-6-(4-((S or R)-(3-Methoxyphenyl)(phenyl)methyl)piperidine-1-carbonyl)hexahydro-2H-pyrido[4,3-b][1,4]oxazin-3(4H)-one] was tested, and the IC50 was 0.2 nM. `COc1cccc(C(c2ccccc2)C2CCN(C(=O)N3CC[C@@H]4OCC(=O)N[C@@H]4C3)CC2)c1` (single isomer, unassigned) [Example 65, (4aR,8aS)-6-(4-((R or S)-(3-Methoxyphenyl)(phenyl)methyl)piperidine-1-carbonyl)hexahydro-2H-pyrido[4,3-b][1,4]oxazin-3(4H)-one] gave an IC50 of 0.2 nM. In the case of `O=C1CO[C@H]2CCN(C(=O)N3CCC(C(c4ccccc4)c4cccc(OCCF)c4)CC3)C[C@H]2N1` (single isomer, unassigned) [Example 66, (4aR,8aS)-6-(4-((S or R)-(3-(2-Fluoroethoxy)phenyl)(phenyl)methyl)piperidine-1-carbonyl)hexahydro-2H-pyrido[4,3-b][1,4]oxazin-3(4H)-one], the IC50 is reported as 0.4 nM. `O=C1CO[C@H]2CCN(C(=O)N3CCC(C(c4ccccc4)c4ccc(F)cc4)CC3)C[C@H]2N1` (single isomer, unassigned) [Example 68, (4aR,8aS)-6-(4-((S or R)-(4-Fluorophenyl)(phenyl)methyl)piperidine-1-carbonyl)hexahydro-2H-pyrido[4,3-b][1,4]oxazin-3(4H)-one] gave an IC50 of 0.2 nM. Work on `Cc1ccc(C(c2ccc(F)cc2)C2CCN(C(=O)N3CC[C@@H]4OCC(=O)N[C@@H]4C3)CC2)cc1` (single isomer, unassigned) [Example 69, (4aR,8aS)-6-[4-[(S or R)-(4-Fluorophenyl)-(4-methylphenyl)methyl]piperidine-1-carbonyl]-4,4a,5,7,8,8a-hexahydropyrido[4,3-b][1,4]oxazin-3-one] yielded an IC50 of 0.1 nM. In the case of `O=C1CO[C@H]2CCN(C(=O)N3CCC(C(c4ccccc4)c4ccc(OCCF)cc4)CC3)C[C@H]2N1` (single isomer, unassigned) [Example 70, (4aR,8aS)-6-[4-[(R or S)-[4-(2-Fluoroethoxy)phenyl]-phenylmethyl]piperidine-1-carbonyl]-4,4a,5,7,8,8a-hexahydropyrido[4,3-b][1,4]oxazin-3-one], the IC50 is reported as 4 nM. `COc1ccc(C(c2ccc(F)cc2)C2CCN(C(=O)N3CC[C@@H]4OCC(=O)N[C@@H]4C3)CC2)cc1` (single isomer, unassigned) [Example 71, (4aR,8aS)-6-(4-((S or R)-(4-Fluorophenyl)(4-methoxyphenyl)methyl)piperidine-1-carbonyl)hexahydro-2H-pyrido[4,3-b][1,4]oxazin-3(4H)-one] gave an IC50 of 0.2 nM. `Cc1ccc(C(c2ccc(F)cc2)C2CCN(C(=O)N3CC[C@@H]4OCC(=O)N[C@@H]4C3)CC2)cc1` (single isomer, unassigned) [Example 72, (4aR,8aS)-6-(4-((R or S)-(4-Fluorophenyl)(p-tolyl)methyl)piperidine-1-carbonyl)hexahydro-2H-pyrido[4,3-b][1,4]oxazin-3(4H)-one] showed an IC50 of 0.1 nM. For `COc1ccc(C(c2ccc(F)cc2)C2CCN(C(=O)N3CC[C@@H]4OCC(=O)N[C@@H]4C3)CC2)cc1OC` (single isomer, unassigned) [Example 73, (4aR,8aS)-6-(4-((S or R)-(3,4-Dimethoxyphenyl)(4-fluorophenyl)methyl)piperidine-1-carbonyl)hexahydro-2H-pyrido[4,3-b][1,4]oxazin-3(4H)-one], the IC50 was 0.4 nM. Work on `COc1ccc(C(c2ccccc2)C2CCN(C(=O)N3CC[C@@H]4OCC(=O)N[C@@H]4C3)CC2)cc1OC` (single isomer, unassigned) [Example 74, (4aR,8aS)-6-(4-((R or S)-(3,4-Dimethoxyphenyl)(phenyl)methyl)piperidine-1-carbonyl)hexahydro-2H-pyrido[4,3-b][1,4]oxazin-3(4H)-one] yielded an IC50 of 2 nM.
